Results: patent US20130040944A1, “MGLUR4 ALLOSTERIC POTENTIATORS, COMPOSITIONS, AND METHODS OF TREATING NEUROLOGICAL DYSFUNCTION” (VANDERBILT UNIVERSITY, priority 2009, published 2013)

Target: human mGluR4 (Homo sapiens, UniProt Q14833)
Test: potentiation of human mGluR4 in transfected CHO cells, Ca2+-sensitive dye fluorescence, EC20 agonist
Details: for Emax: CHO, read-out: % Glu Max
[1] = EC50 (nM), potentiation of EC20 agonist response, Table I
[2] = hEC50, human mGluR4 potentiation, unit inferred

Chain of human mGluR4 (Q14833 33-912): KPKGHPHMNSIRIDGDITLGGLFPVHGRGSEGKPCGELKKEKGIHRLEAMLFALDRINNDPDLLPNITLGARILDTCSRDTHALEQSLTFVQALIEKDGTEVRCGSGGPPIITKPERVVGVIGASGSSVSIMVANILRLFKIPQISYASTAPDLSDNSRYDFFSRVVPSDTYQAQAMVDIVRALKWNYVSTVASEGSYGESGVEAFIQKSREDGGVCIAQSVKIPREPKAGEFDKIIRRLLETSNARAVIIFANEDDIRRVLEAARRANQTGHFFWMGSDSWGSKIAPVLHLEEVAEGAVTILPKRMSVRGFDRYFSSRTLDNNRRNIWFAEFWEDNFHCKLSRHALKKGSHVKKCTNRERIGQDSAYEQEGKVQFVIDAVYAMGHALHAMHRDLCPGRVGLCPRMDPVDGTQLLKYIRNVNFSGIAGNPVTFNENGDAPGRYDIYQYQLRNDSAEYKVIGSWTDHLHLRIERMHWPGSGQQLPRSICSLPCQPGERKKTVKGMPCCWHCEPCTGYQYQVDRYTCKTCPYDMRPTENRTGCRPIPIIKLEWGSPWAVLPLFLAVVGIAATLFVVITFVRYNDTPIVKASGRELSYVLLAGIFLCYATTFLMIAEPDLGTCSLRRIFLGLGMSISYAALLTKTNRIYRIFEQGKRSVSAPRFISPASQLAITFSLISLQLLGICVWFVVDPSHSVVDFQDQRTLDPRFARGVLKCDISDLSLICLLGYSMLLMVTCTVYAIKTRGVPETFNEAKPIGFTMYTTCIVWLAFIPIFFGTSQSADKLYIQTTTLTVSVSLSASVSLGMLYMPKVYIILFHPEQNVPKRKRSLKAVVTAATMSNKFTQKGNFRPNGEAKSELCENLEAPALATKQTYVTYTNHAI

| Compound | Emax [%] | EC50 [1] [nM] | EC50 [2] [nM] |
| --- | --- | --- | --- |
| O=C(Nc1ccn(S(=O)(=O)Cc2ccccc2)c1)c1cc(F)ccn1 [Example 39, N-(1-(benzylsulfonyl)-1H-pyrrol-3-yl)-4-fluoropicolinamide] | 35 | 369 |  |
| O=C(Nc1ccn(S(=O)(=O)c2ccc(CO)cc2)c1)c1ccccn1 [Example 161, N-(1-((4-(hydroxymethyl)phenyl)sulfonyl)-1H-pyrrol-3-yl)picolinamide] |  |  | 1210 |
| COc1ccc(S(=O)(=O)n2ccc(NC(=O)c3ccccn3)c2)cn1 [Example 140, N-(1-((6-methoxypyridin-3-yl)sulfonyl)-1H-pyrrol-3-yl)picolinamide] |  |  | 116 |
| O=C(Nc1ccn(S(=O)(=O)c2ccccc2)c1)c1ccccn1 [Example 4, N-(1-(phenylsulfonyl)-1H-pyrrol-3-yl)picolinamide] | 59 | 280 |  |
| O=C(Nc1ccn(S(=O)(=O)c2ccccc2OC(F)F)c1)c1ccccn1 [Example 73, N-(1-((2-(difluoromethoxy)phenyl)sulfonyl)-1H-pyrrol-3-yl)picolinamide] |  |  | 570 |
| O=C(Nc1ccn(S(=O)(=O)c2ccc3[nH]c(=O)sc3c2)c1)c1ccccn1 [Example 158, N-(1-((2-oxo-2,3-dihydrobenzo[d]thiazol-6-yl)sulfonyl)-1H-pyrrol-3-yl)picolinamide] |  |  | 550 |
| O=C(Nc1ccn(S(=O)(=O)c2ccccc2Cl)c1)c1ccccn1 [Example 11] | 91 | 222 |  |
| Cc1ccc(S(=O)(=O)n2ccc(NC(=O)c3ccccn3)c2)c(C)c1 [Example 74, N-(1-((2,4-dimethylphenyl)sulfonyl)-1H-pyrrol-3-yl)picolinamide] |  |  | 880 |
| O=C(Nc1ccn(S(=O)(=O)c2ccc(Cl)cc2F)c1)c1ccccn1 [Example 138, N-(1-((4-chloro-2-fluorophenyl)sulfonyl)-1H-pyrrol-3-yl)picolinamide] |  |  | 243 |
| O=C(Nc1ccn(S(=O)(=O)c2ccc(Cl)cn2)c1)c1ccco1 [Example 167, N-(1-((5-chloropyridin-2-yl)sulfonyl)-1H-pyrrol-3-yl)furan-2-carboxamide] |  |  | 2860 |
| Cc1ccc(CS(=O)(=O)n2ccc(NC(=O)c3ccccn3)c2)cc1 [Example 47, N-(1-((4-methylbenzyl)sulfonyl)-1H-pyrrol-3-yl)picolinamide] |  |  | 280 |
| COc1ccccc1S(=O)(=O)n1ccc(NC(=O)c2ccccn2)c1 [Example 72, N-(1-((2-methoxyphenyl)sulfonyl)-1H-pyrrol-3-yl)picolinamide] |  |  | 2060 |
| O=C(Nc1ccn(S(=O)(=O)Cc2ccc(F)cc2Cl)c1)c1ccco1 [Example 61, N-(1-((2-chloro-4-fluorobenzyl)sulfonyl)-1H-pyrrol-3-yl)furan-2-carboxamide] |  |  | 320 |
| CC(c1ccccc1)S(=O)(=O)n1ccc(NC(=O)c2ccccn2)c1 (centres unmarked) [Example 96, N-(1-((1-phenylethyl)sulfonyl)-1H-pyrrol-3-yl)picolinamide] |  |  | 2300 |
| O=C(Nc1ccn(S(=O)(=O)Cc2ccc(Br)cc2)c1)c1ccccn1 [Example 70, N-(1-((4-bromobenzyl)sulfonyl)-1H-pyrrol-3-yl)picolinamide] |  |  | 144 |
| O=C(Nc1ccn(S(=O)(=O)c2ccc(OC(F)F)cc2)c1)c1ccco1 [Example 163, N-(1-((4-(difluoromethoxy)phenyl)sulfonyl)-1H-pyrrol-3-yl)furan-2-carboxamide] |  |  | 3240 |
| Cc1ccc(C)c(S(=O)(=O)n2ccc(NC(=O)c3ccccn3)c2)c1 [Example 81, N-(1-((2,5-dimethylphenyl)sulfonyl)-1H-pyrrol-3-yl)picolinamide] |  |  | 228 |
| O=C(Nc1ccn(S(=O)(=O)c2ccc(C(F)(F)F)c(F)c2)c1)c1ccccn1 [Example 104, N-(1-((3-fluoro-4-(trifluoromethyl)phenyl)sulfonyl)-1H-pyrrol-3-yl)picolinamide] |  |  | 4020 |
| O=C(Nc1ccn(S(=O)(=O)c2ccc(N3CCOCC3)nc2)c1)c1ccccn1 [Example 144, N-(1-((6-morpholinopyridin-3-yl)sulfonyl)-1H-pyrrol-3-yl)picolinamide] |  |  | 1070 |
| O=C(Nc1ccn(S(=O)(=O)c2ccc(F)c(F)c2)c1)c1ccccn1 [Example 59, N-(1-((3,4-difluorophenyl)sulfonyl)-1H-pyrrol-3-yl)picolinamide] |  |  | 379 |
| Cc1cc(S(=O)(=O)n2ccc(NC(=O)c3ccccn3)c2)c(F)cc1Cl [Example 113, N-(1-((4-chloro-2-fluoro-5-methylphenyl)sulfonyl)-1H-pyrrol-3-yl)picolinamide] |  |  | 346 |
| Cc1cccc(C)c1S(=O)(=O)n1ccc(NC(=O)c2ccco2)c1 [Example 67, N-(1-((2,6-dimethylphenyl)sulfonyl)-1H-pyrrol-3-yl)furan-2-carboxamide] |  |  | 6130 |
| O=C(Nc1ccn(S(=O)(=O)Cc2ccccc2)c1)c1nccs1 [Example 44, N-(1-(benzylsulfonyl)-1H-pyrrol-3-yl)thiazole-2-carboxamide] | 175 | 4380 |  |
| O=C(Nc1ccn(S(=O)(=O)c2ccccc2C(F)(F)F)c1)c1ccccn1 [Example 10] | 101 | 526 |  |

| Compound | Emax [%] | EC50 [1] [nM] | EC50 [2] [nM] |
| --- | --- | --- | --- |
| Cc1cc(F)ccc1S(=O)(=O)n1ccc(NC(=O)c2ccccn2)c1 [Example 87, N-(1-((4-fluoro-2-methylphenyl)sulfonyl)-1H-pyrrol-3-yl)picolinamide] |  |  | 111 |
| O=C(Nc1ccn(S(=O)(=O)c2ccc(F)c(F)c2)c1)c1nccs1 [Example 80, N-(1-((3,4-difluorophenyl)sulfonyl)-1H-pyrrol-3-yl)thiazole-2-carboxamide] |  |  | 1270 |
| Cn1cc(S(=O)(=O)n2ccc(NC(=O)c3ccccn3)c2)cn1 [Example 143, N-(1-((1-methyl-1H-pyrazol-4-yl)sulfonyl)-1H-pyrrol-3-yl)picolinamide] |  |  | 4790 |
| Cc1cc(C)c(S(=O)(=O)n2ccc(NC(=O)c3ccccn3)c2)cc1Cl [Example 114, N-(1-((5-chloro-2,4-dimethylphenyl)sulfonyl)-1H-pyrrol-3-yl)picolinamide] |  |  | 22900 |
| O=C(Nc1ccn(S(=O)(=O)Cc2ccccc2)c1)c1ccccn1 [Example 2, N-(1-(benzylsulfonyl)-1H-pyrrol-3-yl)picolinamide] | 275 | 562 |  |
| CC(C)(C)c1ccc(S(=O)(=O)n2ccc(NC(=O)c3ccccn3)c2)cc1 [Example 58, N-(1-((4-(tert-butyl)phenyl)sulfonyl)-1H-pyrrol-3-yl)picolinamide] |  |  | 16800 |
| O=C(Nc1ccn(S(=O)(=O)c2cc(F)c(F)c(F)c2)c1)c1ccccn1 [Example 126, N-(1-((3,4,5-trifluorophenyl)sulfonyl)-1H-pyrrol-3-yl)picolinamide] |  |  | 276 |
| Cn1ccc(S(=O)(=O)n2ccc(NC(=O)c3ccccn3)c2)n1 [Example 159, N-(1-((1-methyl-1H-pyrazol-3-yl)sulfonyl)-1H-pyrrol-3-yl)picolinamide] |  |  | 931 |
| Cc1ccccc1S(=O)(=O)n1ccc(NC(=O)c2ccccn2)c1 [Example 9] | 67 | 198 |  |
| O=C(Nc1ccn(S(=O)(=O)c2cccc(F)c2)c1)c1ccccn1 [Example 90, N-(1-((3-fluorophenyl)sulfonyl)-1H-pyrrol-3-yl)picolinamide] |  |  | 178 |
| O=C(Nc1ccn(S(=O)(=O)Cc2ccc(F)cc2Cl)c1)c1nccs1 [Example 60, N-(1-((2-chloro-4-fluorobenzyl)sulfonyl)-1H-pyrrol-3-yl)thiazole-2-carboxamide] |  |  | 132 |
| O=C(Nc1ccn(S(=O)(=O)c2cc(F)c(F)cc2F)c1)c1ccccn1 [Example 110, N-(1-((2,4,5-trifluorophenyl)sulfonyl)-1H-pyrrol-3-yl)picolinamide] |  |  | 226 |
| O=C(Nc1ccn(S(=O)(=O)Cc2ccccc2)c1)c1ccncn1 [Example 45, N-(1-(benzylsulfonyl)-1H-pyrrol-3-yl)pyrimidine-4-carboxamide] | 57 | > 20000 |  |
| CC(C)(C)OC(=O)C(c1ccccc1)S(=O)(=O)n1ccc(NC(=O)c2ccccn2)c1 (centres unmarked) [Example 94, tert-butyl 2-phenyl-2-((3-(picolinamido)-1H-pyrrol-1-yl)sulfonyl)acetate] |  |  | 14500 |
| O=C(Nc1ccn(S(=O)(=O)Cc2ccccc2)c1)c1cccc(F)n1 [Example 41, N-(1-(benzylsulfonyl)-1H-pyrrol-3-yl)-6-fluoropicolinamide] | 76 | 574 |  |
| O=C(Nc1ccn(S(=O)(=O)c2ccoc2)c1)c1ccccn1 [Example 125, N-(1-(furan-3-ylsulfonyl)-1H-pyrrol-3-yl)picolinamide] |  |  | 1490 |
| O=C(Nc1ccn(S(=O)(=O)Cc2ccccc2)c1)c1ccco1 [Example 1, N-(1-(benzylsulfonyl)-1H-pyrrol-3-yl)furan-2-carboxamide] | 227 | 6410 |  |
| O=C(Nc1ccn(S(=O)(=O)c2ccc3ccccc3c2)c1)c1ccccn1 [Example 36] | 58 | > 10000 |  |
| CC(=O)Oc1ccccc1C(=O)Nc1ccn(S(=O)(=O)c2cccc(C)c2)c1 [Example 54, 2-((1-(m-tolylsulfonyl)-1H-pyrrol-3-yl)carbamoyl)phenyl acetate] |  |  | 1720 |
| CCc1ccc(S(=O)(=O)n2ccc(NC(=O)c3ccccn3)c2)cc1 [Example 122, N-(1-((4-ethylphenyl)sulfonyl)-1H-pyrrol-3-yl)picolinamide] |  |  | 133 |
| O=C(Nc1ccn(S(=O)(=O)Cc2cccc(F)c2)c1)c1ccco1 [Example 91, N-(1-((3-fluorobenzyl)sulfonyl)-1H-pyrrol-3-yl)furan-2-carboxamide] |  |  | 6760 |
| O=C(Nc1ccn(S(=O)(=O)c2ccc(Cl)nc2)c1)c1ccccn1 [Example 118, N-(1-((6-chloropyridin-3-yl)sulfonyl)-1H-pyrrol-3-yl)picolinamide] |  |  | 217 |
| O=C(Nc1ccn(S(=O)(=O)Cc2ccccc2)c1)c1nccs1 [Example 63, N-(1-(benzylsulfonyl)-1H-pyrrol-3-yl)thiazole-2-carboxamide] |  |  | 2760 |
| O=C(Nc1ccn(S(=O)(=O)c2ccc(N3CCCC3=O)cc2)c1)c1ccccn1 [Example 154, N-(1-((4-(2-oxopyrrolidin-1-yl)phenyl)sulfonyl)-1H-pyrrol-3-yl)picolinamide] |  |  | 543 |
